Experimental findings from article PMC4750701, “Role of Mitochondrial RNA Polymerase in the Toxicity of Nucleotide Inhibitors of Hepatitis C Virus” (Antimicrobial Agents and Chemotherapy, 2016) are described below.

One series concerns the target T1, RNA PolII (Homo sapiens, UniProt P24928+P30876).
T1 construct: purchased as part of the HeLaScribe nuclear extract in vitro transcription system kit; purchased Promega (Madison, WI); host or cells: HeLa nuclear extract (endogenous enzyme)
The series is described as follows: Inhibition of RNA PolII (HeLaScribe nuclear extract transcription). The note with it: nucleotide analogs (Table 6); read-out: Mean IC50 ± SD for RNA PolII. It is filed as biochemical. The text has this:
(§1) Activated fish sperm DNA was purchased from USB/Affymetrix (Santa Clara, CA) and used as a template for the DNA polymerases alpha, beta, and gamma. The DNA template used in the RNA Pol II assay was a 1,188-bp restriction fragment containing the cytomegalovirus (CMV) immediate early promoter (Promega, Madison, WI). The RNA and DNA oligonucleotides used in the mitochondrial RNA polymerase assay (see Table S1 in the supplemental material) were synthesized and PAGE purified by Thermo Scientific/Dharmacon (Lafayette, CO). RNA primer R12 was 5′-^32P-phosphorylated with [γ-^32P]ATP (3,000 Ci/mmol) and T4 kinase (New England BioLabs, Ipswich, MA).
(§2) Human DNA polymerase alpha, isolated from HeLa cell extracts, was from CHIMERx (Madison, WI). Recombinant human DNA polymerase beta, expressed in E. coli, was a gift from Zucai Suo at The Ohio State University. Recombinant human DNA polymerase gamma (including both the large subunit and the small subunit) was cloned, expressed, and purified from insect cells by Gilead Sciences (Foster City, CA) ([13]). RNA PolII was purchased as part of the HeLaScribe nuclear extract in vitro transcription system kit from Promega (Madison, WI). The recombinant human PolRMT and the transcription factors mitochondrial transcription factor A (mtTFA) and B2 (mtTFB2) were purchased from Enzymax (Lexington, KY). FLAG epitope-tagged RNA PolI and PolIII complexes were isolated from rat NSN1 cells and HeLa cells, respectively ([17], [18]). The inhibition of DNA polymerases alpha, beta, and gamma, PolRMT, and PolII and the rate of single-nucleotide incorporation by PolRMT have been described previously in detail ([12], [13], [19]). Inhibition of RNA PolI and PolIII was studied using published methods ([20], [21]). All concentrations were final unless noted otherwise. For the RNA PolI inhibition assay, a reaction mixture containing 50 mM HEPES (pH 7.9), 20% glycerol, 100 mM KCl, 1 mM dithiothreitol (DTT), 50 μg/ml calf thymus DNA, 4 mM MgCl2, 5 or 80 μM UTP (0.25 μl of [5,6-^3H]UTP, >25 Ci/mmol; PerkinElmer), 1 mM noncompeting NTP, competing NTP (5 μM for GTP, CTP, and UTP and 25 μM for ATP), and various concentrations (0 to 500 μM) of NTP analogs was preincubated at 30°C for 5 min. […] After incubation at 30°C for 20 min to 1 h, the reactions were terminated by pipetting the mixtures onto DEAE-cellulose discs (DE81; Whatman), and the products analyzed as described previously ([20], [21]).

For the next series, the target named is T2, RNA PolI (Rattus norvegicus, UniProt O54889).
T2 construct: complexes were isolated from rat NSN1 cells and HeLa cells, respectively; made in house; host or cells: rat NSN1 cells expressing a FLAG-tagged Pol I subunit
The series is described as follows: RNA PolI inhibition assay. It is filed as biochemical. The note with it: NTP analogs 0 to 500 μM; read-out: Mean IC50 ± SD for RNA PolI.
Excerpt: as §2

The target in a further series is T3, RNA PolIII (Homo sapiens, UniProt O14802+Q9NW08).
T3 construct: complexes were isolated from rat NSN1 cells and HeLa cells, respectively; made in house; host or cells: HeLa cells expressing a FLAG-tagged Pol III subunit
The series is described as follows: RNA PolIII inhibition assay. It is filed as biochemical. The note with it: competing NTP 100 μM CTP and GTP, 500 μM ATP; read-out: Mean IC50 ± SD for RNA PolIII.
Excerpt: as §2
The RNA PolIII inhibition assay was conducted in a similar manner, except that the concentrations of the competing NTP were modified to 100 μM for CTP and GTP and 500 μM for ATP to compensate for the low assay signal at lower NTP concentrations.

A short description of series [1]: Cytotoxicity / ATP level in PC-3 cells, 5-day treatment. Conditions: human, PC-3 cells.
Procedure: (§4) All cells were cultured at 37°C in a 5% CO2 incubator with 90% humidity unless noted otherwise. […] All cells were treated with the various compounds for 5 days, except for human erythroid and myeloid progenitors, which were treated for 14 days. After the incubation period, cell viability was measured by the addition of CellTiter Glo viability reagents (Promega, Madison, WI). The luminescence signal was quantified on an Envision luminescence plate reader (PerkinElmer, Waltham, MA) after incubation of the reagents and cells for 10 min at room temperature. […] CC50 values were calculated as the average of the results of three or four independent experiments.
Cell Culture and Cytotoxicity Studies
(§5) The Huh-7 cells were maintained in growth medium containing Dulbecco's Modified Eagle
(§6) Medium (DMEM, Cellgro) supplemented with 1% Nonessential Amino Acids (NEAA, Cellgro,
(§7) Manassas, VA), 10% fetal bovine serum (FBS, HyClone, Logan, UT) and 1% Penicillin-
(§8) streptomycin-glutamate (PSG, Invitrogen, Carlsbad, CA). The cells were passaged twice weekly
(§9) and maintained at 90% confluence densities.
(§10) The HepG2 cells were maintained in Eagle’s Minimum Essential Medium (EMEM) from ATCC
(§11) (Manassas, VA) supplemented with 10% FBS, 100 units/mL penicillin and 100 µg/mL
(§12) streptomycin (P/S) (Gibco). The cells were passaged twice weekly and maintained at 90%
(§13) The PC-3 cells were maintained in Kaighn’s F12 medium (Gibco, Carlsbad, CA) supplemented
(§14) with 10% FBS (HyClone, Logan, UT), 100 units/mL penicillin and 100 µg/mL streptomycin
(§15) (P/S) (Gibco). The cells were passaged twice weekly and maintained at 90% confluence. Cells
(§16) between passages 4 and 15 were used in the assays.
(§17) The fibroblast cell line MRC-5 cell line derived from normal lung tissue, was purchased from
(§18) ATCC (Manassas, VA) and cultured in Minimum Essential Medium (MEM) (Cellgro, Manassas,
(§19) VA) supplemented with 10% FBS (HyClone, Logan, UT) and 1% PSG (Invitrogen). The cells
(§20) were passaged twice weekly and maintained at 90% confluence densities.
The test system of series [2] is mitochondrial DNA-encoded cytochrome c oxidase (COX-1). The series is described as follows: Mitochondrial protein synthesis assay (COX-1, MitoBiogenesis in-cell ELISA) in PC-3 cells. Conditions: PC-3 cells. It is filed as cell-based, human. The method, then:
(§3) PC-3 cells were treated with the compounds for 5 days and analyzed with the MitoTox MitoBiogenesis in-cell enzyme-linked immunosorbent assay (ELISA) kit (MitoSciences/Abcam, Eugene, Oregon) as described previously ([13]). The assay uses quantitative immunocytochemistry to measure the protein levels of nuclear DNA-encoded succinate dehydrogenase (SDH-A; complex II [succinate dehydrogenase]) and mitochondrial DNA-encoded cytochrome c oxidase (COX-1; complex IV [cytochrome c oxidase]) in cultured cells.

Series [3] concerns mitochondrial DNA-encoded cytochrome c oxidase (COX-1; complex IV) protein level. Described as above. It is filed as cell-based, human. Conditions: human; PC-3 cells, COX-1, 5 days; read-out: Mean CC50 ± SD causing Mitochondrial toxicity: Protein synthesis. The method, then: as §3
Series [4] in a line: Bone marrow erythroid progenitor colony assay, 14 days. It is filed as cell-based, human. The note with it: human, human bone marrow erythroid progenitors, read-out: Mean CC50 ± SD in Bone marrow cells Erythroid.
Series [5] relates to mitochondrial spare respiratory capacity. The series is described as follows: Oxygen consumption rate / spare respiratory capacity in PC-3 cells. The note with it: human, pH 7.4.
Procedure: (§21) Mitochondrial respiration was monitored by measuring the rate of oxygen consumption (OCR) of PC-3 cells after 3-day treatments with the compounds, using a Seahorse extracellular flux analyzer (XF^e-96) based on published protocols ([22][–][24]). The optimal cell seeding was determined by measuring the basal OCR of PC-3 cells that were seeded at different densities of 2.5 × 10^3, 5 × 10^3, 7.5 × 10^3, and 10 × 10^3 cells/well in XF 96-well plates (Seahorse Bioscience, North Billerica, MA) and incubated with 0.5% dimethyl sulfoxide (DMSO) for 3 days. […] Each reagent in the Mito Stress test kit (Seahorse Biosciences), i.e., ATP synthase inhibitor oligomycin, mitochondrial uncoupler carbonyl cyanide-4-(trifluoromethoxy)phenylhydrazone (FCCP), and a fixed-ratio mixture of the mitochondrial complex I (NADH dehydrogenase) inhibitor rotenone and the complex III (CoQH2-cytochrome c reductase) inhibitor antimycin A, was titrated. The lowest concentration that reached the maximal effect was chosen for each reagent. The OCR signals were normalized by cell numbers using DNA content determined by Hoechst's stain as described below.
(§22) PC-3 cells were seeded at a density of 5 × 10^3 cells/well in XF 96-well plates and incubated with the compounds for 3 days. On the day of the assay, the cell medium was replaced with XF assay medium (pH 7.4) containing 10 mM glucose and 1 mM freshly prepared pyruvate. Mitochondrial respiration was monitored by measuring OCR on a Seahorse extracellular flux analyzer (XF^e-96). All concentrations listed are the final concentration after mixing unless noted otherwise. […] Spare respiratory capacity was obtained by subtracting the rate of basal respiration from the rate of maximal respiration.
(§23) The cells were lysed by freezing at −80°C for >2 h. […] In parallel, another set of cells was treated with the compounds for 3 days and the ATP levels were measured using CellTiter Glo viability reagents (Promega, Madison, WI).
The subject of series [6] is mitochondrial spare respiratory capacity in PC-3 cells. The series is described as above. The note with it: PC-3 cells, 3-day treatments.
Procedure: as §21, §22, §23
The test system of series [7] is nuclear DNA-encoded succinate dehydrogenase (SDH-A; complex II) protein level. The series is described as follows: Nuclear protein synthesis (SDH-A, MitoBiogenesis in-cell ELISA) in PC-3 cells. The note with it: human, read-out: Mean CC50 ± SD causing General cellular toxicity: Protein synthesis. It is filed as cell-based, human. The method, then: as §3
Series [8] is described as follows: Cytotoxicity in primary human hepatocytes, 5 days. The note with it: human, primary human hepatocytes.
Series [9] can be described thus: Cytotoxicity in quiescent PBMCs, 5 days. The note with it: human, quiescent PBMCs.
Procedure: Human peripheral blood mononuclear cells (PBMCs) were isolated from human buffy coats obtained from healthy volunteers (Stanford Blood Bank, Palo Alto, CA) using standard Ficoll separation and stimulated as described elsewhere ([13]) and were tested at both quiescent and stimulated stages. Quiescent PBMCs were stimulated with 10 units per ml of recombinant human interleukin 2 (hIL-2) and 1 μg per ml phytohemagglutinin P (PHA-P) for 48 h prior to drug treatment.
as §4
Human peripheral blood mononuclear cells (PBMCs) were isolated from human buffy coats
obtained from normal healthy volunteers (Stanford Medical School Blood Center, Palo Alto,
CA). Total PBMCs were isolated from buffy coats using standard Ficoll separation and sterile
cellular isolation techniques performed in a bio-safety cabinet (1). Except where noted, the
procedure was carried out at room temperature. The final PBMCs pellet was resuspended in
Logan, UT), penicillin 100 units/mL and streptomycin 100 µg/mL (Gibco). For quiescent
PBMCs cultures, total cells were seeded in 96-well plates at a density of 1 x 10^6 cells per well, followed by immediate drug treatment. Stimulated PBMCs cultures were set up by seeding the freshly isolated PBMCs in T-175cm2 tissue culture flasks in 100 mL of RPMI containing the same components as the ones used for the quiescent PBMCs but with the addition of 10 units per mL of recombinant human interleukin-2 (hIL-2, Roche, Indianapolis, IN), and 1 µg per mL phytohemagglutinin-P (PHA-P, Sigma-Aldrich, St. Louis, MO) at density of 2  10^6 cells per mL for 48 hours at 37C in a 5% CO2 incubator with 90% humidity, prior to drug treatment.
Series [10] is described as follows: Cytotoxicity in MT-4 T-cells, 5-day treatment. Conditions: human, MT-4 cells.
A short description of series [11]: Cytotoxicity in stimulated PBMCs, 5 days. Conditions: human, stimulated PBMCs.
Series [12] is described as follows: Bone marrow myeloid progenitor colony assay, 14 days. It is filed as cell-based, human. Conditions: human, human bone marrow myeloid progenitors, read-out: Mean CC50 ± SD in Bone marrow cells Myeloid.
A short description of series [13]: Cytotoxicity in Huh7 cells, 5-day treatment (CellTiter Glo). The note with it: human, Huh-7 cells.
Procedure: as §4
Cell Culture and Cytotoxicity Studies
as §5, §6, §7, §8, §9, §10, §11, §12, §13, §14, §15, §16, §17, §18, §19, §20
Series [14] is described as follows: Cytotoxicity in HepG2 (galactose) cells, 5-day treatment. The note with it: human, HepG2 cells (galactose).
Series [15] is described as follows: Cytotoxicity in MRC5 fibroblasts, 5-day treatment. Conditions: human, MRC5 fibroblasts.
Procedure: as §4
Cell Culture and Cytotoxicity Studies
as §5, §6, §7, §8, §9, §10, §11, §12, §13, §14, §15, §16, §17, §18, §19, §20
A further series addresses T4, recombinant human PolRMT (Homo sapiens, UniProt O00411).
T4 construct: purchased Enzymax (Lexington, KY)
The series is described as follows: Single-nucleotide incorporation by PolRMT. Conditions: triphosphate form, fixed saturating concentration 500 μM, rate relative to corresponding natural rNTP. It is filed as biochemical.
Excerpt: as §1, §2
Supplementary Table S1: RNA primer and templates used in mitochondrial RNA
polymerase single nucleotide incorporation assay.
Oligonucleotides Sequencesa
Primer (R12) 5’-[…]-3’
Templates (D18) 3’-[…]-5’
a The bold letter in the template sequences denotes the bases that pair with the incoming NTP. […]

For series [16], the target named is T5, Recombinant human DNA polymerase gamma (Homo sapiens, UniProt P54098).
T5 construct: made in house; host or cells: insect cells
T5 sequence (P54098 1-1239): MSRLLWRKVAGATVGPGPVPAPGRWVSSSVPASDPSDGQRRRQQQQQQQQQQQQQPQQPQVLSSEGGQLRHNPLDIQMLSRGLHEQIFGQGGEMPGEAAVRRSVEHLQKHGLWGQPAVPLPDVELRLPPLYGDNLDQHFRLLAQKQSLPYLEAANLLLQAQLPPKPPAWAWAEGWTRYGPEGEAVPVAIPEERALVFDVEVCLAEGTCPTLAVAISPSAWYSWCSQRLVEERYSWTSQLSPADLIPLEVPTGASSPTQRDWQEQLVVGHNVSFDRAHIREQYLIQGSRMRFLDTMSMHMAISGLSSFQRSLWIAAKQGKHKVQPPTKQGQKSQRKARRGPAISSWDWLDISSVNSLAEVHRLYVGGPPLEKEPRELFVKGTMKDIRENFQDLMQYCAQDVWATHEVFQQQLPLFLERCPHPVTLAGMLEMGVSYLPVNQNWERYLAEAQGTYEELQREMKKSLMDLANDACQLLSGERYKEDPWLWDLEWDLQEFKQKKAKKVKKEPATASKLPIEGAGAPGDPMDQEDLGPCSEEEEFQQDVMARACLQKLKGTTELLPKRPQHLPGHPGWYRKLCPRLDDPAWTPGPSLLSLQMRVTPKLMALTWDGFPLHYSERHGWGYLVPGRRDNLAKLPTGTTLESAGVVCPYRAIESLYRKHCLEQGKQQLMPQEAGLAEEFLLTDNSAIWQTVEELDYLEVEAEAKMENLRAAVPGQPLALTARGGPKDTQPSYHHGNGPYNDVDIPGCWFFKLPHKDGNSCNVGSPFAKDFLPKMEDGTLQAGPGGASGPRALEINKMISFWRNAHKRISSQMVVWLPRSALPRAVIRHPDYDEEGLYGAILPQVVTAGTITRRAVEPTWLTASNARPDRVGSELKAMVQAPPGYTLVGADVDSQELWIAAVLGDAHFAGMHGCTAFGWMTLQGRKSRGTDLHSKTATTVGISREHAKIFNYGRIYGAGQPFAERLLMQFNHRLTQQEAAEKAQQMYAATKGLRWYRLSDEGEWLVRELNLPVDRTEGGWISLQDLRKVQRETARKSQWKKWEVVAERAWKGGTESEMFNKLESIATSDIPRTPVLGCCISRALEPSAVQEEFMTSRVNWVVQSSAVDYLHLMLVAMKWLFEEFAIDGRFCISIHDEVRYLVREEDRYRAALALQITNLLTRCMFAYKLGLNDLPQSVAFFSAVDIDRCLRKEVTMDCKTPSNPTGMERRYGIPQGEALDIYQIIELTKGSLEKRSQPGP
T5 sequence (Q9UHN1 26-485 partner limits assumed): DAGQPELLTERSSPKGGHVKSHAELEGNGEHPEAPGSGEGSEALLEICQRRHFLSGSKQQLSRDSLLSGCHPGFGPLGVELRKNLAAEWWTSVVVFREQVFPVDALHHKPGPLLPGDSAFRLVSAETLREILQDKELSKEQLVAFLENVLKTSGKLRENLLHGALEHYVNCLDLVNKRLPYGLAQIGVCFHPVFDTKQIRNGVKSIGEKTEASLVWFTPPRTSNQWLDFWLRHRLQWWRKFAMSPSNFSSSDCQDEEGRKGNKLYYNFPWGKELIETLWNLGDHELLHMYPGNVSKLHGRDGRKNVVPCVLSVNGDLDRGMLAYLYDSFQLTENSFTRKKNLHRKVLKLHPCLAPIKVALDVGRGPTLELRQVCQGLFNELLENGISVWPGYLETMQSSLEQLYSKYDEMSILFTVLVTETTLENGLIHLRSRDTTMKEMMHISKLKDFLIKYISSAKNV
The series is described as follows: Inhibition of human DNA polymerase gamma. It is filed as biochemical. Conditions: triphosphate form of the compound tested; read-out: Mean IC50 ± SD for DNA Pol γ.
Excerpt: as §1, §2

Series [17] concerns the target T6, Recombinant human DNA polymerase beta (Homo sapiens, UniProt P06746).
T6 construct: host or cells: E. coli
The series is described as follows: Inhibition of human DNA polymerase beta. Conditions: triphosphate form of the compound tested; read-out: Mean IC50 ± SD for DNA Pol β. It is filed as biochemical.
Excerpt: as §1, §2

T2 sequence (O54889 whole entry): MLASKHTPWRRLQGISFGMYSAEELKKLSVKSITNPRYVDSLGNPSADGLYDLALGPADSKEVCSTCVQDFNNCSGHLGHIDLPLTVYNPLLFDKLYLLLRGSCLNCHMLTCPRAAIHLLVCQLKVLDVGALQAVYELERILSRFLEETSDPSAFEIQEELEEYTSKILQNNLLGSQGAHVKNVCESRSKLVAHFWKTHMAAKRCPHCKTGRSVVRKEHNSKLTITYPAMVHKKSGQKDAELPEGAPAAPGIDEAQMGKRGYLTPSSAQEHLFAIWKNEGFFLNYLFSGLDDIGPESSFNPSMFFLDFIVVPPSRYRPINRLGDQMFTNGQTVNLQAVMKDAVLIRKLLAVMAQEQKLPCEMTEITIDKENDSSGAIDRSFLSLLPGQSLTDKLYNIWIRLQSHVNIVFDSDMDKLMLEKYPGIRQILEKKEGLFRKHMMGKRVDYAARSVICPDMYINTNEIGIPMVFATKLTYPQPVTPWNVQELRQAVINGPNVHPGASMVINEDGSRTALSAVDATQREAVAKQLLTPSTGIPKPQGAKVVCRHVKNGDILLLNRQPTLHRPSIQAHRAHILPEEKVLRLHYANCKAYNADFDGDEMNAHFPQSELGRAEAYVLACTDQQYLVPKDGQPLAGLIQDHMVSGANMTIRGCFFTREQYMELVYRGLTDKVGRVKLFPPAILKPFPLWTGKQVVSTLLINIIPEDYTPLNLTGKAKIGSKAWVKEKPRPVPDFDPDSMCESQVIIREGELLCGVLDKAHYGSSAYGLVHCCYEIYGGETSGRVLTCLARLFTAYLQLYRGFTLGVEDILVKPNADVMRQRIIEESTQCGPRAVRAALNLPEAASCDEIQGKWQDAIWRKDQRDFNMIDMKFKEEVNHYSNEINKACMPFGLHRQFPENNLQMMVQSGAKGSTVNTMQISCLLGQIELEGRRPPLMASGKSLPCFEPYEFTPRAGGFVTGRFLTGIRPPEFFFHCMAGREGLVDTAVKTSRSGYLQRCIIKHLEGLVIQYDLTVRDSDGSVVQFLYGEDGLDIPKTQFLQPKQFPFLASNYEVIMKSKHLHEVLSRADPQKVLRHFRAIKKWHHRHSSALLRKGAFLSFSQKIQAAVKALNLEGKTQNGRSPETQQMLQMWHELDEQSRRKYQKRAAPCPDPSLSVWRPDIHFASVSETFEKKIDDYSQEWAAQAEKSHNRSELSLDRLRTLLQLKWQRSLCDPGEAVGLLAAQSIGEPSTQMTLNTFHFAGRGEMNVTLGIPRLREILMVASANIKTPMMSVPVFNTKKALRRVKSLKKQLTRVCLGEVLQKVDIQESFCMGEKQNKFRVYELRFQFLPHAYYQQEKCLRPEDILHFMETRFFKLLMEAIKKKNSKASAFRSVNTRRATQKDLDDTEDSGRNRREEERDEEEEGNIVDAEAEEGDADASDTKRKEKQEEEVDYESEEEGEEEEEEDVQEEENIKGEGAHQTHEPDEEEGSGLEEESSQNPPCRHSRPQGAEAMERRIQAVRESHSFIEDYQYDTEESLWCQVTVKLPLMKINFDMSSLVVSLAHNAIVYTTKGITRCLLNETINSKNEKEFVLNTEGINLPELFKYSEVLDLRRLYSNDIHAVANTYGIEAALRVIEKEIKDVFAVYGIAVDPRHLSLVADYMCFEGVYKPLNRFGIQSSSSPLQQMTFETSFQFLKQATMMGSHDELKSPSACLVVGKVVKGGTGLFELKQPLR
T4 sequence (O00411 42-1230): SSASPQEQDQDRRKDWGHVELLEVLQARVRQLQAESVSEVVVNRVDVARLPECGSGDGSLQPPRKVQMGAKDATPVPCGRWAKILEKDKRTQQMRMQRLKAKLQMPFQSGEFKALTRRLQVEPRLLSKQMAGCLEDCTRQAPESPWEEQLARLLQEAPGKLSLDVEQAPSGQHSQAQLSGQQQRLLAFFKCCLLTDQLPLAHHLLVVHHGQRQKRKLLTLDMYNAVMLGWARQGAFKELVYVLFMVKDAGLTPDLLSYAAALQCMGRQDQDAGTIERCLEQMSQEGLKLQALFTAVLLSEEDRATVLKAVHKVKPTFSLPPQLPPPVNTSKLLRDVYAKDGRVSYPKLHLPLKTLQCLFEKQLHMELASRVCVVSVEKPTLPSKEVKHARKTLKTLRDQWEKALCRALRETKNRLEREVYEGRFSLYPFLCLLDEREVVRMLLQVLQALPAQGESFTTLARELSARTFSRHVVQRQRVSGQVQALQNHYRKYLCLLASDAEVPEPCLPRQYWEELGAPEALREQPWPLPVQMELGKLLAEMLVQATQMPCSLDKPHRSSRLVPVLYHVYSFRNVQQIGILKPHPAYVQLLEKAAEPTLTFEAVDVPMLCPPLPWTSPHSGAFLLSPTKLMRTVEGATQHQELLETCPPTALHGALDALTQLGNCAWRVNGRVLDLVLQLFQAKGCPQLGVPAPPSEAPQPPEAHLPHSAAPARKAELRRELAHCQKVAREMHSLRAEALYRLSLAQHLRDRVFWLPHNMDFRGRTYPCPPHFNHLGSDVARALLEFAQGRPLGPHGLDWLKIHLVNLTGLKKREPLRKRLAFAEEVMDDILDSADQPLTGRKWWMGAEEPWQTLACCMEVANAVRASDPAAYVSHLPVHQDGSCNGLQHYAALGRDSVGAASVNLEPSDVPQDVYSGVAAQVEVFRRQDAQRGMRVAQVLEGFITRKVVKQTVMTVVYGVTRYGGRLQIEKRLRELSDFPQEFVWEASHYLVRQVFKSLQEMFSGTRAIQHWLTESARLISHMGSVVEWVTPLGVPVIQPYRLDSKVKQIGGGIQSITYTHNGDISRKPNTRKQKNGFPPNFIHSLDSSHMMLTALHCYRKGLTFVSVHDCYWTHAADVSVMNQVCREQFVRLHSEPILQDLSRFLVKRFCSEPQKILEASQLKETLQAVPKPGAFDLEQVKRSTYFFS

As to `C[C@@]1(O)[C@H](O)[C@@H](COP(=O)(O)OP(=O)(O)OP(=O)(O)O)O[C@H]1n1ccc(N)nc1=O` [2′CMeCTP], the half-inhibitory concentration (IC50) on RNA PolII is more than 500 µM; on RNA PolI it was 260 ± 40 µM; on RNA PolIII, more than 500 µM.

In the case of `O=C(N[C@H](CO)[C@H](O)c1ccc([N+](=O)[O-])cc1)C(Cl)Cl` [Chloramphenicol], the CC50 at 5 days is 16 ± 3 µM in series [1]; 2.6 ± 0.6 µM in series [3]; more than 50 µM in series [7]; more than 100 µM in series [8]; more than 100 µM in series [9]; more than 89 µM in [10]. The CC50 at 5 days in [11] was more than 100 µM; in [13] it was more than 89 µM; in series [14], more than 89 µM; in series [15] it was more than 89 µM. For the same compound, the “selectivity of effect on COX-1 versus SDH-A and ATP levels” value in [2] (5-day treatments) is “specifically inhibited COX-1 synthesis”. Further, the CC50 at 14 days in series [4] was 82 ± 29 µM; in [12], more than 100 µM. Moreover, half-maximal cytotoxicity in [5] (CC50 at 3 days) was put at 4.5 ± 1.5 µM. The “selectivity of effect on spare respiratory capacity versus DNA and ATP levels” value in series [6] was “specifically inhibited mitochondrial spare respiratory capacity”.

Regarding `CC(C)C(=O)OC[C@H]1O[C@@H](n2ccc(N)nc2=O)[C@](C)(F)[C@@H]1OC(=O)C(C)C` [mericitabine], the “Substrate incorporation (% of NTP [mean ± SD]) of PolRMT” value on recombinant human PolRMT is < 1 % of NTP.

Turning to `Cc1cn([C@H]2CC[C@@H](COP(=O)(O)OP(=O)(O)OP(=O)(O)O)O2)c(=O)[nH]c1=O` [3′dTTP], the IC50 came to 1.2 ± 0.6 µM in [16] and 1.9 ± 0.8 µM in [17].

On to `NC(=O)c1ncn([C@@H]2O[C@H](CO)[C@@H](O)[C@H]2O)n1` [RBV, ribavirin], for which the “effect on mitochondrial or nuclear protein synthesis or ATP level” value in [2] (5-day treatment, 10 μM) is “no appreciable effect”.

Consider `C[C@@]1(O)[C@H](O)[C@@H](COP(=O)(O)OP(=O)(O)OP(=O)(O)O)O[C@H]1n1cnc2c(N)ncnc21` [2′CMeATP], for which the IC50 on RNA PolII was more than 500 µM; at RNA PolI, 190 ± 40 µM; on RNA PolIII, more than 500 µM.
